What was measured:
[1] = test system: mice; details: after first five days of compound c; FIG. 10
Excerpt: Following the first five days of administration of compound c, behavioural determinations were made in order to evaluate the symptoms. […] Another symptom associated with pain in fibromyalgia is depression.
Depression test: Tail suspension, forced swimming.

[2] = test system: mice; assay: Symptoms of fibromyalgia (pain, depression) in mice with AMPK inhibited by compound c; type: in vivo; details: then metformin
Excerpt: In order to monitor the effect of metformin in an in vivo model of AMPK deficit, we will use mice that will be administered compound c, a specific inhibitor of AMPK phosphorylation, in time, and their behaviour will be characterised one week before starting the administrations of compound c and 7 days after the first administration. […] Prior to beginning the administration of compound c and metformin, and following the pain behaviour tests, other behavioural tests will be conducted which show other symptoms presented by patients with fibromyalgia: […]

[3] = test system: mice; assay: Hot-plate test (nociception) in mice; type: in vivo; details: after first five days of compound c; at Temp.<50° C. and Temp.>50° C.; FIG. 9
Excerpt: Another symptom associated with pain in fibromyalgia is depression.
In order to monitor the effect of metformin in an in vivo model of AMPK deficit, we will use mice that will be administered compound c, a specific inhibitor of AMPK phosphorylation, in time, and their behaviour will be characterised one week before starting the administrations of compound c and 7 days after the first administration. This experimental design will provide us with a view as to how metformin inhibits the effects induced by the deficit of AMPK and its influence on the behaviour of the mice, monitoring, with particular interest, those tests that show an alteration of nociception (hot plate, visceral pain [J Neurochem (2007) 103: 2629-39] and muscle pain [J Neurosci (2007) 27: 10000-6]). Prior to beginning the administration of compound c and metformin, and following the pain behaviour tests, other behavioural tests will be conducted which show other symptoms presented by patients with fibromyalgia: […]

[4] = test system: AMPK phosphorylation; assay: Mouse model of AMPK activation deficiency induced by compound C: biochemical parameters; type: in vivo, mice of the Swiss strain; details: for ATP (deficit) / citrate synthase (mitochondrial mass) / lipid peroxidation / activation of IL-1β interleukin of the inflammasome / activation of IL-18 interleukin of the inflammasome: mice, compound C 20 mg/kg/day i.p., alone or with metformin; for ATP (deficit): FIG. 5; for citrate synthase (mitochondrial mass): FIG. 6; for lipid peroxidation / activation of IL-1β interleukin of the inflammasome / activation of IL-18 interleukin of the inflammasome: serum; for lipid peroxidation: FIG. 7; for activation of IL-1β interleukin of the inflammasome / activation of IL-18 interleukin of the inflammasome: FIG. 8
Procedure: The mice were injected by intraperitoneal route once a day, the final daily dose being 20 mg/kg/day. Another group of mice received the treatment with Compound C in addition to Metformin. The treatment is performed until the day the animals are sacrificed. […]
Blood: The blood will be the starting-point to obtain serum or isolate leukocytes. The following will be measured in the serum: glucose, triglycerides, cholesterol, lactate, proteins, redox potential, protein oxidation, etc. The following will be measured in the leukocytes: ATP, inflammatory interleukins, oxidative stress, mitochondrial mass.

[5] = test system: fibroblasts of patients with fibromyalgia; assay: Protection of patient fibroblasts exposed to hydrogen peroxide (cell death); type: cell-based, human; details: low doses of hydrogen peroxide with metformin added, FIG. 4
Procedure: Parallel to this, skin fibroblasts isolated from patients with fibromyalgia kept under culture with DMEM medium with 20% serum and 5% CO2 will be used. […] Once the ideal working dose has been found, below 5 mM, we will be able to quantify the protection against stressful stimuli through the effect of hydrogen peroxide, a very potent free radical. Using flow cytometry, we will evaluate the production of ROS before and after the treatment below 5 mM. Other parameters to be quantified at these doses will be ATP, by means of luminometry, citrate synthase as a marker of mitochondrial mass, by means of enzyme kinetics spectrophotometry, and inflammatory interleukins by means of ELISA.

[6] = test system: blood mononuclear cells (BMCs) of patients with fibromyalgia; details: BMCs of 20 fibromyalgia patients after metformin
Excerpt: (§1) In order to study the role of AMPK phosphorylation in patients with fibromyalgia, AMPK activation was induced with metformin, a potent AMPK stimulator, in the BMCs of 20 patients.
(§2) In order to evaluate the effect of metformin in in vitro models of fibromyalgia, we will use mononuclear cells isolated from patients with fibromyalgia and kept under culture conditions, with RPMI medium with 10% serum and 5% CO2. Parallel to this, skin fibroblasts isolated from patients with fibromyalgia kept under culture with DMEM medium with 20% serum and 5% CO2 will be used. These cultures will enable us to evaluate the toxicity of different doses of metformin and compounds that induce AMPK phosphorylation, through the quantification of apotosis and cell growth, by counting the nuclei of live cells. Once the ideal working dose has been found, below 5 mM, we will be able to quantify the protection against stressful stimuli through the effect of hydrogen peroxide, a very potent free radical. Using flow cytometry, we will evaluate the production of ROS before and after the treatment below 5 mM. Other parameters to be quantified at these doses will be ATP, by means of luminometry, citrate synthase as a marker of mitochondrial mass, by means of enzyme kinetics spectrophotometry, and inflammatory interleukins by means of ELISA.

[7] = test system: inflammasome (IL-1β, IL-18) in BMCs of patients with fibromyalgia; assay: IL-1β and IL-18 inflammasome interleukins in cells of fibromyalgia patients; type: cell-based, human
Excerpt: as §1, §2

[8] = neuropathic pain (Russe et al., 2013), adiposis dolorosa (Labuzek et al., 2013); cited from earlier work
[9] = BMCs of fibromyalgia patients after metformin, FIG. 3

## c1cc(-c2cnn3cc(-c4ccc(OCCN5CCCCC5)cc4)cnc23)ccn1 [compound c]
[1]
  paralysis (immobilisation) in tail suspension test, reflecting depression: greater paralysis
[2]
  symptoms typical of fibromyalgia, such as pain or depression: presented symptoms typical of fibromyalgia
[3]
  response latency to the thermal stimulus (hot-plate test): decrease in the response latency
[4]
  ATP (deficit): induced alterations
  citrate synthase (mitochondrial mass): induced alterations
  lipid peroxidation: induced alterations
  activation of IL-1β interleukin of the inflammasome: induced alterations
  activation of IL-18 interleukin of the inflammasome: induced alterations

## CN(C)C(=N)N=C(N)N [metformin]
[5]
  cell death: significantly reduced
[2]
  symptoms typical of fibromyalgia, such as pain or depression: recovery in the symptoms
[6]; FIG. 1
  ATP levels: significant recovery
[6]; FIG. 2
  mitochondrial ROS: decrease
[4]; mice with inhibited AMPK
  inhibition of the inflammasome: demonstrated inhibition of the inflammasome
[4]
  ATP (deficit): restored
  citrate synthase (mitochondrial mass): restored
  lipid peroxidation: restored
  activation of IL-1β interleukin of the inflammasome: restored
  activation of IL-18 interleukin of the inflammasome: restored
[7]; [9]
  IL-1β interleukin of the inflammasome: decrease
  IL-18 interleukin of the inflammasome: decrease
[7]; cells of patients with fibromyalgia
  inhibition of the inflammasome: demonstrated inhibition of the inflammasome
[8]
  analgesic effect: strong analgesic effect
